{
  "source": "patent US20220146497A1",
  "about": "“Method of Modulating a Fibrotic Condition” (The Procter & Gamble Company, priority 2019, published 2022)",
  "key": {"COL1A1": {"tested_on": "COL1A1", "experiment": "Red-COL1A1 mCherry reporter assay (fluorescence from reporter downstream of the endogenous COL1A1 promoter)", "assay_type": "cell-based, human", "details": "increasing doses, immortalized tertBJ fibroblasts, FIG. 3A", "from_the_text": "In this example, RNA interference (“RNAi”) screening was used to identify genes that appear to inhibit collagen synthesis. Immortalized human skin fibroblasts (BJhTERT, available from ATCC, Manassas, Va. were modified to place an mCherry reporter gene downstream of the endogenous promoter for COL1A1 using […] (TALENs). COL1A1 is well known for its role in the synthesis of Type I collagen, sometimes referred to as collagen I, which is a fibrillar collagen that accounts for over 90% of the collagen found in the human body. The reporter gene codes for the mCherry RFP, which can be quantitated using known fluorescent protein detection techniques. Transforming growth factor beta (“TGFβ”), a well-known COL1A1 activating cytokine, was used in a fluorescence-activated cell sorting (“FACS”) technique to select for a cell line with low endogenous expression and high levels of inducible expression of the mCherry gene. […]\nAutomated image acquisition and analysis was used to quantitate the fluorescent protein. […] Images were analyzed using METAXPRESS brand high-content image analysis software from Molecular Devices. The percentage of cells with positive nuclear-localizing mCherry signal above background was determined using the “Translocation-Enhanced” module. […]\nThis increased fluorescence directly correlates to increased collagen synthesis. […]"}, "[1]": {"tested_on": "immortalized tertBJ fibroblasts cells", "experiment": "Cell count by DAPI staining of nuclei (toxicity)", "assay_type": "cell-based, human", "details": "increasing concentrations, FIG. 3B", "method": "This increased fluorescence directly correlates to increased collagen synthesis. The results of the positive control (TGFβ), the vehicle control for the TGFβ (Media Control), and the vehicle control for the alpha-ergocryptine (DMSO control) are also illustrated in FIG. 3A. […] Cell count was determined by staining the nuclei with 4′,6-diamidino-2-phenylindole (DAPI), which is a fluorescent stain that binds strongly to adenine-thymine rich regions in DNA. DAPI staining is a well-known technique for determining cell count in fluorescence microscopy."}},
  "data": [
    {"smiles": "CC(C)C[C@H]1C(=O)N2CCC[C@H]2[C@]2(O)O[C@](NC(=O)[C@@H]3C=C4c5cccc6[nH]cc(c56)C[C@H]4N(C)C3)(C(C)C)C(=O)N12", "note": "[alpha-ergocryptine]", "values": [
      {"measurement": "COL1A1 expression (fluorescence of mCherry reporter)", "setting": "COL1A1", "value": "increased COL1A1 expression"},
      {"measurement": "toxicity as determined by cell counts (DAPI)", "setting": "[1]", "value": "not toxic"}
    ]}
  ]
}
